{"source": "patent US6492381B1", "about": "“Tricyclic carbamate compounds useful for inhibition of G-protein function and for treatment of proliferative diseases” (Schering Corp., priority 1993, dated 2002)", "key": {"[1]": {"test_system": "C-f-1 [mouse fibroblast transformed with c-fos oncogene]", "assay": "In vivo anti-tumor study, C-f-1 s.c. tumor", "conditions": "C-f-1 s.c. in athymic nu/nu mice, BID", "from_the_text": "(§1) In Vivo Anti-Tumor Studies\n(§2) Tumor cells (5×10^5 to 8×10^6 of M27 [mouse Lewis lung carcinoma], A431 [human epidermal carcinoma] or SW620 [human colon adenocarcinoma (lymph node metastasis)]) are innoculated subcutaneously into the flank of 5-6 week old athymic nu/nu female mice. For the C-f-1 [mouse fibroblast transformed with c-fos oncogene] tumor model, 2 mm^3 tumor fragments are transplanted subcutaneously into the flank of 5-6 week old athymic nu/nu female mice. Tumor bearing animals are selected and randomized when the tumors are established. Animals are treated with vehicle (beta cyclodextran for i.p. or corn oil for p.o.) only or compounds in vehicle twice a day (BID) for 5 (1-5) or 7 (1-7) days per week for 2 (×2) or 4 (×4) weeks. The percent inhibition of tumor growth relative to vehicle controls are determined by tumor measurements."}, "[2]": {"test_system": "SW620 [human colon adenocarcinoma (lymph node metastasis)]", "assay": "In vivo anti-tumor study, SW620 s.c. tumor", "design": "species or system mouse", "conditions": "po", "from_the_text": "as §1, §2"}, "[3]": {"test_system": "disordered cell growth induced by transforming Ras-CVLS in COS monkey kidney cells", "assay": "Cell-based assay: disordered cell growth induced by transforming Ras in COS cells (microscopy)", "from_the_text": "(§3) 2. Cell-Based Assay: Transient expression of val^12-Ha-Ras-CVLS and val^12-Ha-Ras-CVLL in COS monkey kidney cells: Effect of farnesyl protein transferase inhibitors on Ras processing and on disordered cell growth induced by transforming Ras.\n(§4) COS monkey kidney cells were transfected by electroporation with the plasmid pSV-SPORT (Gibco/BRL) containing a cDNA insert encoding either Ras-CVLS or Ras-CVLL, leading to transient overexpression of a Ras substrate for either farnesyl protein transferase or geranylgeranyl protein transferase I, respectively (see above).\n(§5) Following electroporation, cells were plated into 6-well tissue culture dishes containing 1.5 ml of Dulbecco's-modified Eagle's media (GIBCO, Inc.) supplemented with 10% fetal calf serum and the appropriate farnesyl protein transferase inhibitors. After 24 hours, media was removed and fresh media containing the appropriate drugs was re-added.\n48 hours after electroporation cells were examined under the microscope to monitor disordered cell growth induced by transforming Ras. Cells expressing transforming Ras become more rounded and refractile and overgrow the monolayer, reminiscent of the transformed phenotype. […]"}, "[4]": {"test_system": "Ras-CVLS processing in COS monkey kidney cells", "assay": "Cell-based assay: Ras-CVLS processing in transfected COS cells (immunoblot)", "conditions": "Primates; inhibition of Ras-CVLS processing in Ras-transfected COS cells", "from_the_text": "as §3, §4, §5\n48 hours after electroporation cells were examined under the microscope to monitor disordered cell growth induced by transforming Ras. Cells expressing transforming Ras become more rounded and refractile and overgrow the monolayer, reminiscent of the transformed phenotype. Cells were then photographed, washed twice with 1 ml of cold phosphate-buffered saline (PBS) and removed from the dish by scraping with a rubber policeman into 1 ml of a buffer containing 25 mM Tris, pH 8.0; 1 mM ethylenediamine tetraacetic acid; 1 mM phenylmethylsulfonyl fluoride; 50 μM leupeptin; and 0.1 μM pepstatin. Cells were lysed by homogenization and cell debris was removed by centrifugation at 2000×g for 10 min.\nCellular protein was precipitated by addition of ice-cold trichloroacetic acid and redissolved in 100 μl of SDS-electrophoresis sample buffer. Samples (5-10 μl) were loaded onto 14% polyacrylamide minigels (Novex, Inc.) and electrophoresed until the tracking dye neared the bottom of the gel. Proteins resolved on the gels were electroblotted onto nitrocellulose membranes for immunodetection.\nMembranes were blocked by incubation overnight at 4° C. in PBS containing 2.5% dried milk and 0.5% Tween-20 and then incubated with a Ras-specific monoclonal antibody, Y13-259 (Furth, M. E., et al., (1982), Monoclonal antibodies to the p21 products of the transforming gene of Harvey murine sarcome virus and of the cellular ras gene family, J. Virol. 43: 294-304), in PBS containing 1% fetal calf serum for one hour at room temperature. After washing, membranes were incubated for one hour at room temperature with a 1:5000 dilution of secondary antibody, rabbit anti-rat IgG conjugated to horseradish peroxidase, in PBS containing 1% fetal calf serum. The presence of processed and unprocessed Ras-CVLS or Ras-CVLL was detected using a calorimetric peroxidase reagent (4-chloro-1-naphthol) as described by the manufacturer (Bio-Rad)."}, "[5]": {"test_system": "Normal human HEPM fibroblasts", "assay": "Cell Mat assay: inhibition of normal cell growth", "assay_type": "cell-based", "conditions": "Homo sapiens, Fibroblast, mIC50, normal cell monolayer", "description": "Normal human HEPM fibroblasts were planted in 3.5 cm dishes at a density of 5×10^4 cells/dish in 2 ml growth medium, and incubated for 3-5 d to achieve confluence. Medium was aspirated from each dish and the indicator tumor cells, T24-BAG4 human bladder carcinoma cells expressing an activated H-ras gene, were planted on top of the fibroblast monolayer at a density of 2×10^3cells/dish in 2 ml growth medium, and allowed to attach overnight. Compound-induced colony inhibition was assayed by addition of serial dilutions of compound directly to the growth medium 24 h after tumor cell planting, and incubating cells for an additional 14 d to allow colony formation. Assays were terminated by rinsing monolayers twice with phosphate-buffered saline (PBS), fixing the monolayers with a 1% glutaraldehyde solution in PBS, then visualizing tumor cells by staining with X-Gal (Price, J., et al., Lineage analysis in the vertebrate nervous system by retrovirus-mediated gene transfer, Proc. Natl. Acad. Sci.84, 156-160(1987)). […] Both IC50 values were obtained by determining the density of tumor cells and mat cells by visual inspection and enumeration of cells per colony and the number of colonies under the microscope. The therapeutic index of the compound was quantitatively expressed as the ratio of mIC50/tIC50, with values greater than one indicative of tumor target specificity."}}, "data": [{"smiles": "CCOC(=O)N1CCC(C2(F)c3ccc(Cl)cc3CCc3cccnc32)CC1", "note": "(centres unmarked) [Compound 530.00]", "values": [{"measurement": "% Inhibition (tumor growth relative to vehicle controls)", "setting": "[1]; ip, 1-5, × 2", "result": 17.8, "unit": "%"}, {"measurement": "% Inhibition (tumor growth relative to vehicle controls)", "setting": "[1]; po, 1-5, × 4", "result": 69, "unit": "%"}, {"measurement": "average % tumor inhibition", "setting": "[2]; SW620, 100 MPK, 10/wk, ×4", "result": 57, "unit": "%"}, {"measurement": "% Inhibition (tumor growth relative to vehicle controls)", "setting": "[2]; SW-620 s.c. in athymic nu/nu mice, BID, 1-5, × 4", "result": 73, "unit": "%"}, {"measurement": "response to oncogenic Ras-CVLS (overgrowth of monolayer, dense foci)", "setting": "[3]; at 6.6 μg/ml", "result": "inhibited"}, {"measurement": "response to oncogenic Ras-CVLS (overgrowth of monolayer, dense foci)", "setting": "[3]; at 20 μg/ml", "result": "inhibited"}, {"measurement": "IC50", "setting": "[4]", "result": 15.4, "unit": "µM"}, {"measurement": "IC50", "setting": "[5]", "result": 100, "unit": "µM"}]}]}
